In ChEMBL document CHEMBL1201862, “PubChem BioAssay data set” (2004):
Calls of active or inactive are those of the source. Cut-off read from the data, not from the text of the source, for most assays here: actives have a measured EC50 and inactives only a lower limit.

Assays:
[1] = NIH3T3 cell viability loss – ATP luminescence, mouse fibroblasts, counter-screen, dose response (AID 2010); format: functional, cell-based;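 note: cells exposed to compound for about 90 hours before reading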
[2] = Trypanosoma cruzi growth suppression in host cells – NIH3T3 host cells, beta-gal luminescence, confirmation (AID 2044); format: functional, cell-based;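 note: intracellular parasites grown in NIH/3T3 mouse fibroblasts as host cells; luminescent beta-galactosidase reporter signal from transgenic T. cruzi replicating inside host cells; inhibitors lower the luminescence signal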
Cytochrome P450 1A2 = target: T1, Cytochrome P450 1A2 (Homo sapiens, UniProt P05177);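 note: PubChem cytochrome P450 panel assay, CYP1A2 panel member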
T1 sequence (P05177 whole entry): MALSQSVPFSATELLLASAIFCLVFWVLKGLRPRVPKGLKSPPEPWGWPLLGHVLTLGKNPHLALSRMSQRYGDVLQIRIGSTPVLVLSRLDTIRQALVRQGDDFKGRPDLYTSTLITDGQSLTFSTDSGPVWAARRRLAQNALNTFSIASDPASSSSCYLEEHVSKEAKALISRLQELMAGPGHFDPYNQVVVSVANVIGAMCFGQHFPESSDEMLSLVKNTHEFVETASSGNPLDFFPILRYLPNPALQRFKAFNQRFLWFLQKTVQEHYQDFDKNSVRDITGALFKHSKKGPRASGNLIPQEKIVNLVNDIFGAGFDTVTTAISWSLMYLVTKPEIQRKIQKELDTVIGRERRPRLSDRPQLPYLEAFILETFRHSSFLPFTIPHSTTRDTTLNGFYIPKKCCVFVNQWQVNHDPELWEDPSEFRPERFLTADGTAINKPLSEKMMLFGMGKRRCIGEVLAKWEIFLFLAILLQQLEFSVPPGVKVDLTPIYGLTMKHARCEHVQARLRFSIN

Protein RecA = target: T2, Protein RecA (Mycobacterium tuberculosis, UniProt P9WHJ3); assay: Fluorescence Cell-Free Homogeneous Dose Retest to Identify Inhibitors of RecA-Intein Splicing Activity. [Related pubchem assays (depositor defined):AID2097, AID2223, AID489010, AID492950]; format: functional
T2 sequence (P9WHJ3 whole entry): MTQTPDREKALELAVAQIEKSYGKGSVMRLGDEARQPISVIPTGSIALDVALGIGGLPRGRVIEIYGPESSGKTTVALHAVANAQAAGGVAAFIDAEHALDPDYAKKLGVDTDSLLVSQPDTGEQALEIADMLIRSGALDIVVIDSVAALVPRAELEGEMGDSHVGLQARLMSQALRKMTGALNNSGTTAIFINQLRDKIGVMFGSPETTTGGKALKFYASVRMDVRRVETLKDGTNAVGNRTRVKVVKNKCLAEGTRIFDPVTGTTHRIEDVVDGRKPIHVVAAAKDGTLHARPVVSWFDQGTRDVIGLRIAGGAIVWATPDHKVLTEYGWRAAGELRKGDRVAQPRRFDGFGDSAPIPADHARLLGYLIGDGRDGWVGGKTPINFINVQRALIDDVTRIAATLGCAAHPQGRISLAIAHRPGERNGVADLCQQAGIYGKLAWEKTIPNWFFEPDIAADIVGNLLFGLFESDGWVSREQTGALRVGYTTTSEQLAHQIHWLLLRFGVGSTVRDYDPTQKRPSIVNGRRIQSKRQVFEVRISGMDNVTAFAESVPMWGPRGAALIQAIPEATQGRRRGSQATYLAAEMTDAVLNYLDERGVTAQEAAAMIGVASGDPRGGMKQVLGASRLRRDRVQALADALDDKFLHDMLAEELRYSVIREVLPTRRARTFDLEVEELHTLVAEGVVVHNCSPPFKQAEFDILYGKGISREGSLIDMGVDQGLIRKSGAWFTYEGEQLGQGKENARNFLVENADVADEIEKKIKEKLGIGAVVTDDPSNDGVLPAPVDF

[3] = target: T3, Replicative DNA helicase DnaB (Mycobacterium tuberculosis, UniProt P9WMR3); assay: DnaB intein splicing inhibitors, dose response, biochemical, cell-free fluorescence (AID 449749); format: functional
T3 sequence (P9WMR3 whole entry): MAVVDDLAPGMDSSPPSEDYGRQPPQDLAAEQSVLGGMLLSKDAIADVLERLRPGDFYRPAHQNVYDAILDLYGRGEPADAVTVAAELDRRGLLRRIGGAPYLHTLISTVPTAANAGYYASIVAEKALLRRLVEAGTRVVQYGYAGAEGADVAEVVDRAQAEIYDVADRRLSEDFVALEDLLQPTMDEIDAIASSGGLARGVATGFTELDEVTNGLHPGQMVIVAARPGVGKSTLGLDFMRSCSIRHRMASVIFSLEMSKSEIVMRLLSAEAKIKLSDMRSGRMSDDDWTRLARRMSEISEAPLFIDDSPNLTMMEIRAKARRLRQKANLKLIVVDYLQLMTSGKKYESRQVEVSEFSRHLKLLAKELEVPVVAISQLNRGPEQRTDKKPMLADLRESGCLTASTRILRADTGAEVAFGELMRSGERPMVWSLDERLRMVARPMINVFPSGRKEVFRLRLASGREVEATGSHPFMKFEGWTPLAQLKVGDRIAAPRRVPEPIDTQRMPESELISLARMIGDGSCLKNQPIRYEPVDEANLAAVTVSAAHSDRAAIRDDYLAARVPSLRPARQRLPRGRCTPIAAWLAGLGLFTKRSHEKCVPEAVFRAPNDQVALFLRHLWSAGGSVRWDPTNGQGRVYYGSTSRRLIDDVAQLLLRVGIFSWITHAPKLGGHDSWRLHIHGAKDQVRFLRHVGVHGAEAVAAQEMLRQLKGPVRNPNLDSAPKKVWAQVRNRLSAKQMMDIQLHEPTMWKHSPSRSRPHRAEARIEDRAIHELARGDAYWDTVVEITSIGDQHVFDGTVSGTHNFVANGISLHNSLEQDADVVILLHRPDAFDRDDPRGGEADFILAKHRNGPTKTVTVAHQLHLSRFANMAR

[4] = viability of uninfected HEp-2 cells – cell-based, HTS, cytotoxicity control for RSV inhibitor project, dose response (AID 2410); format: functional; conditions: human respiratory syncytial virus
Streptococcus = assay: GAS UMAA2166 growth inhibition – luminescence, BacTiterGlo, counter-screen for streptokinase expression inhibitor project, dose response (AID 1915); format: functional, organism-based;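 note: potency for reduction of bacterial viability or growth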
[5] = system: Streptococcus sp. 'group A'; assay: Streptococcus pyogenes SK(-)GAS viability under kanamycin – luminescence, BacTiterGlo, confirmation, counter-screen for streptokinase expression inhibitor project, dose response (AID 1900); format: functional, organism-based

## Cc1ccc(NP(=O)(c2ccc(N(C)C)cc2NC(=O)c2cccs2)N2CCOCC2)cc1Cl (stereo unspecified)
[1]
  EC50: > 30 µM (not active)
[2]
  EC50: 1.9 µM (active)

## O=C(COC(=O)c1c2c(nc3ccccc13)/C(=C\c1cccs1)CCC2)Nc1ccccc1Cl
[1]
  EC50: > 60 µM (not active)
[2]
  EC50: 1.73 µM (active)

## COc1ccc(-n2c(=O)c(-c3cn(C)c4ccccc34)nc3cnc(N4CCOCC4)nc32)cc1
Cytochrome P450 1A2
  AC50: 31.6 µM (inconclusive)

## O=C(C1=C[C@H](c2ccc(Br)cc2)C[C@H](OCCCCO)O1)N1CCN(Cc2ccccc2)CC1
[1]
  EC50: > 60 µM (not active)
[2]
  EC50: 0.874 µM (active)

## C[C@@H](C(=O)NCc1ccccn1)[C@@H]1C[C@@]1(C)[C@@H](NC(=O)OCc1ccccc1)c1ccccc1
Cytochrome P450 1A2
  AC50: 20 µM (inconclusive)

## O=S(=O)(c1ccccc1)N1CCC[C@@]2(CCN(c3cccc(-c4ccccc4)c3)C2)C1
Cytochrome P450 1A2
  AC50: 15.8 µM (inconclusive)

## O=C(NC1CCCCCC1)c1cccnc1S
[1]
  EC50: > 60 µM (inconclusive)
[2]
  EC50: 8.39 µM (active)

## Clc1ccc(N2CCCCCC2)nn1
Cytochrome P450 1A2
  AC50: 15.8 µM (inconclusive)

## N#C/C(=C/c1ccncc1)c1nc2ccccc2s1
Protein RecA
  EC50: 1.67 µM (active)
[3]
  AC50: > 120 µM (inactive)

## CCOC(=O)c1ccc(-n2ccnc2)c(NC(=O)c2cccc(Br)c2)c1
[1]
  EC50: > 60 µM (not active)
[2]
  EC50: 0.281 µM (active)

## Cc1nn(C)cc1CN1CCCC(C(=O)c2ccc(-c3ccccc3)cc2)C1 (stereo unspecified)
[1]
  EC50: > 60 µM (not active)
[2]
  EC50: 0.123 µM (active)

## Cc1sc(NC(=O)CSC2=NCCS2)nc1-c1ccccc1
Protein RecA
  EC50: 4.25 µM (active)
[3]
  AC50: 12.7 µM (active)

## COc1ccc(Cl)cc1N=C(S)NCCC(c1ccccc1)c1ccccc1
[1]
  EC50: > 60 µM (not active)
[2]
  EC50: 1.44 µM (active)

## CCOC(=O)c1[nH]c2ccc(OC)cc2c1C(SCC(=O)O)c1ccc(C(F)(F)F)cc1 (stereo unspecified)
[4]
  CC50: 21.1 µM (active)

## N#CC1=C(N)C(C#N)(C#N)[C@H](c2c(F)cccc2F)[C@H]2CC3(CC=C12)OCCO3
Protein RecA
  EC50: 22.2 µM (active)
[3]
  AC50: > 380 µM (inactive)

## Cc1noc(C)c1-c1cncnc1Nc1ccccc1
Cytochrome P450 1A2
  AC50: 25.1 µM (inconclusive)

## Cc1ccc(CNC(=O)CCC2CCCN(Cc3ccc4cccc(F)c4n3)C2)o1 (stereo unspecified)
[1]
  EC50: > 60 µM (not active)
[2]
  EC50: 0.791 µM (active)

## COC(=O)C1=NN(C(C)=O)C2(CC(=O)N(c3cc(C)cc(C)c3)C2=O)C1 (stereo unspecified)
Protein RecA
  EC50: > 380 µM (inactive)
[3]
  AC50: > 380 µM (inactive)

## Cc1ccc(N2CCN(C(=O)C3CCCN(c4ncnc5c4nc4n5CCCCC4)C3)CC2)c(C)c1 (stereo unspecified)
[4]
  CC50: 9.35 µM (active)

## N#CC1=C(N)Oc2[nH]nc(-c3cccs3)c2C1c1ccco1 (stereo unspecified)
Protein RecA
  EC50: 7.2 µM (active)
[3]
  AC50: 8.22 µM (active)

## Cc1nc(-c2ccccn2)nc(SCC(=O)c2ccccc2)c1Cl
Streptococcus
  EC50: 11.4 µM (active)
[5]
  EC50: 3.92 µM (active)

## COc1ccc(C)cc1NC(=O)CN1CCN(S(=O)(=O)c2ccc(C(C)C)cc2)CC1
[1]
  EC50: > 30 µM (not active)
[2]
  EC50: 1.79 µM (active)

## Cc1nc2ccccc2c2c1C(=O)N(Cc1cccnc1)C2=O
Protein RecA
  EC50: 1.02 µM (active)
[3]
  AC50: 32.8 µM (active)

## CCCOc1ccc(C(=O)NNC(=S)NC(=O)c2cc(-c3ccccc3)nc3ccccc23)cc1
Cytochrome P450 1A2
  AC50: 17.8 µM (inconclusive)

## CS(=O)(=O)N1CCC(Oc2ccccc2C(=O)N2CCCCC2CO)CC1 (stereo unspecified)
Protein RecA
  EC50: > 380 µM (inactive)
[3]
  AC50: > 380 µM (inactive)

## O=[N+]([O-])c1ccc(S(=O)(=O)N2CCN(c3ccnc4cc(Cl)ccc34)CC2)cc1
[1]
  EC50: > 60 µM (not active)
[2]
  EC50: 0.581 µM (active)

## C=C(C)COc1ccc(-c2nc(N)nc(C(F)(F)F)c2-c2ccc(OC)cc2)c(O)c1
[1]
  EC50: > 60 µM (not active)
[2]
  EC50: 2 µM (active)

## Cc1c(C(=O)N2CCc3ccccc3C2)sc2nc(-c3ccccc3)cn12
[4]
  CC50: 30.3 µM (active)

## COc1ccc(-c2ccc(-c3noc(-c4ccccc4)n3)c(OC)n2)cc1
[4]
  CC50: 36.4 µM (active)

## CC(C)c1ccccc1OCC(O)CN1CCN(S(=O)(=O)c2ccc([N+](=O)[O-])cc2)CC1 (stereo unspecified)
[1]
  EC50: > 60 µM (not active)
[2]
  EC50: 0.409 µM (active)

## CCn1c2ccccc2c2cc(NC(=O)c3ccc(Br)o3)ccc21
[4]
  CC50: 27.8 µM (active)

## COc1ccc(NC(=O)c2cccc(N3C(=O)C4C5C=CC(C5)C4C3=O)c2)cc1Cl (stereo unspecified)
Protein RecA
  EC50: 18.5 µM (active)
[3]
  AC50: > 380 µM (inactive)

## CC(C)(C)c1ccc(C(=O)Cn2cnnc2C#N)cc1
Protein RecA
  EC50: 20 µM (active)
[3]
  AC50: 48.9 µM (active)

## COc1ccc(C2C(C#N)=C(N)Oc3c2c(C)nn3-c2ccccc2)cc1Cn1nc(C)c([N+](=O)[O-])c1C (stereo unspecified)
Protein RecA
  EC50: 10.5 µM (active)
[3]
  AC50: 2.95 µM (active)

## COCc1n[nH]c2c1C(c1cccc(OC)c1)C(C#N)=C(N)O2 (stereo unspecified)
Protein RecA
  EC50: 27 µM (active)
[3]
  AC50: 40 µM (active)

## Clc1ccccc1-c1ncc2ccccn12
[1]
  EC50: > 60 µM (not active)
[2]
  EC50: 2.45 µM (active)

## Cc1onc(-c2ccc(Cl)cc2Cl)c1-c1csc(N/N=C/c2ccccc2Cl)n1
[1]
  EC50: 13.9 µM (active)
[2]
  EC50: 2.08 µM (active)

## O=C(N/N=C/c1nn(-c2ccccc2)cc1-c1ccc(Cl)cc1)c1ccncc1
[4]
  CC50: 10.1 µM (active)

## COc1cc(/C=N/NC(=O)c2nnn(-c3nonc3N)c2C(C)C)ccc1OCc1ccccc1
[4]
  CC50: 14 µM (active)

## C/C(CC(=O)Nc1cc(C)ccn1)=N\NC(=O)c1ccc(C)cc1
Protein RecA
  EC50: 8.13 µM (active)
[3]
  AC50: 24.4 µM (active)

## CC(=O)/N=c1\sc2c3ccccc3ccc2n1C
[1]
  EC50: > 30 µM (not active)
[2]
  EC50: 0.643 µM (active)

## c1ccc2sc(C3CCNCC3)nc2c1
[1]
  EC50: > 60 µM (not active)
[2]
  EC50: 2.58 µM (active)

## Cc1c(-c2ccccc2)oc2c(C(=O)OCCN3CCCCC3)cccc2c1=O [FLAVOXATE]
Cytochrome P450 1A2
  AC50: 6.31 µM (inconclusive)

## COc1c(N2CCNC(C)C2)c(F)cc2c(=O)c(C(=O)O)cn(C3CC3)c12 (stereo unspecified) [GATIFLOXACIN]
Streptococcus
  EC50: 1.09 µM (active)
[5]
  EC50: 0.66 µM (active)

## CC(C)=CCc1cc([C@@H]2CC(=O)c3ccc(O)c(CC=C(C)C)c3O2)ccc1O [GLABROL]
Streptococcus
  EC50: 5.43 µM (active)
[5]
  EC50: 6.4 µM (active)
